Our source for the mineral bioaccessibility values is patent publication US20250170073A1, “SYNERGISTIC COMPOSITIONS FOR IMPROVING MINERAL BIOACCESSIBILITY” (priority 2022, published 2025).

This assay is described as follows: Simulated digestion model, mineral bioaccessibility. Format: in vitro ADME. The note with it: in the presence of lutein. As for the experimental part: In vitro simulated gastrointestinal digestion was used for assessing mineral bioaccessibility in presence of the tested compounds.
Mineral bioaccessibility buffer (MBB) was prepared (NaCl; 6.6 mg/mL, MgSO4; 0.12 mg/mL, Glucose; 0.9 mg/mL, L-Ascorbic acid; 0.09 mg/mL, HEPES; 8.6 mg/mL at pH 6.5) with Calcium, Iron and Zinc (tricalcium phosphate; 1314.6 μg/mL, Calcium D-pantothenate; 28.5 μg/mL, Calcium Carbonate; 13.0 μg/mL, Iron Sulphate heptahydrate; 3.8 μg/mL, Iron Chloride; 12.5 μg/mL, Zinc Sulphate heptahydrate; 17.4 μg/mL, Zinc Chloride; 2.2 μg/mL) to achieve a total mineral content (Calcium; 520 μg/mL, Iron; 5.0 μg/mL, Zinc; 5.0 μg/mL), as well as soluble mineral content similar to that of infant formula. […]
The transit of CCP, Lutein, 2-PA and non-digestible Gos/Fos through the gastro-intestinal tract was mimicked using a three-phase dialysis model that was adapted from literature [Venema, 2020]. […] Calcium, Iron and Zinc in the dialysate were analyzed with ICP-OES spectrometry.
The average (n=3) total amount of Calcium, Iron and Zinc measured in the dialysate was considered bioaccessible. […]

Turning to `CC1=C[C@H](O)CC(C)(C)[C@H]1/C=C/C(C)=C/C=C/C(C)=C/C=C/C=C(C)/C=C/C=C(C)/C=C/C1=C(C)C[C@@H](O)CC1(C)C` [lutein], the mineral bioaccessibility entry is recorded as “significantly increased”.
